Test results: US5025036A, “Catechol carboxylic acids” (Hoffmann-La Roche Inc., priority 1989, dated 1991)

Columns and labels:
[1] = test system: myeloperoxidase accumulation (acetic acid-induced colitis); assay: Acetic Acid-Induced Colitis in Rats, In Vivo; parameters: species or system male rats (Sprague-Dawley)
Description: The rat acetic acid-induced colitis bioassay has been described by J. E. Krawisz, et al. in Amer. J. Proc. Gastro. Col. Rec. Surg. 31: 11-18 (1980), and by P. Sharon and W. F. Stenson in Gastroenterolgy 88: 55-63 (1985) and 86: 453-460 (1984). Acetic acid-induced colitis is characterized by the movement of inflammatory cells into the colon, with the number of such cells in the mucosa being measured by the activity of myeloperoxidase, a marker enzyme for these cells. Positive desirable activity is indicated by a reduction in the high levels of myeloperoxidase caused by acetic acid. Male rats (Sprague-Dawley), weighing 150 to 300 g, were pretreated twice daily for two days with either the vehicle (water, or dimethylsulfoxide) or the test inhibitor compound suspended in water or dissolved in dimethylsulfoxide and orally administered. On the third day, the animals were dosed the same as on the previous two days, anesthetized with metofane, and 2 ml of 2.5% acetic acid was injected by syringe into the colonic lumen, followed immediately by 3 ml of air and a rinse consisting of 3 ml of phosphate-buffered saline (the acetic acid is present in the lumen for a sufficient period to cause inflammation without producing severe necrosis or irreversible damage). The animals were administered a second dose of the test compound in the same amount about 16 hours later. 24 hours after the acetic acid treatment, the animals were sacrificed, the colonic mucosa was surgically removed and homogenized in an aqueous buffer at pH 6 with a Tissumizer or similar device and myeloperoxidase was measured in the homogenate using o-phenylenediamine as a chromagen, as described by A. Voller, D. E. Bidwell and A. Bartlett in The Enzyme Linked Immunosorbent Assay (ELISA), Zoological Soc., London, 1979, pages 29-30. Control animals were pretreated with the vehicle and saline in place of acetic acid.

Carrageenan pleurisy = assay: Carrageenan Pleurisy Test (In Vivo); parameters: species or system male Lewis rats; conditions: Rattus norvegicus, po, read-out: Rat Carrageenan Pleurisy % Inhib. of Exudate Volume; for inhibition in vivo at 100 mg/kg: at 100 mg/kg p.o
Method: The animals utilized in these studies were male Lewis rats (Charles River Breeding Laboratories) weighing between 230-250 g. […] At 5 or 24 hours after CG injection, the rats were killed by decapitation, exsanguinated, and the pleural cavity exposed by cutting the ribs on both sides of the sternum. The exudate fluid was removed from the pleural cavity with disposable plastic pipettes and its volume quantitated. The pleural cavity was then washed once with phosphate buffered saline containing fetal bovine serum (1:1) and the washings combined with the exudate. The total number of cells in the pleural cavity was quantitated using a Coulter Counter (Model ZM) adjusted to exclude any contaminating RBC. (Published in "Plant Flavonoids in Biology & Medicine: Biochemical, Pharmacological and Structure-Activity Relationships" p. 231-242 (1986) Alan R. Liss, Inc.)

[2] = Rat In Vivo Model of Myocardial Ischemia (free radical generator infusion); parameters: species or system male spontaneously hypertensive rats; conditions: for Rat Ischemia Model % Infarction: percent of left ventricle infarcted of the animals with an infarct
Method: In this preparation a free radical generating (FRG) system consisting of purine (2.3 mM), xanthine oxidase (0.02 U/ml) and iron loaded transferring (0.6 μM) complex is infused into the carotid artery near the ostium of the coronary artery in spontaneously hypertensive rats. Blood is withdrawn before and 24 hours after the FRG challenge for measuring the isoenzymes of lactic acid dehydrogenase (LDH1 :LDH2). An increase in LDH1 :LDH2 ratio reflects cell damage to the myocardium. The electrocardiogram is also taken before and 24 hours after the FRG infusion. At the end of the experiment the heart is removed, sliced in a breadloaf fashion, and stained with triphenyltetrazolium chloride to determine infarct size. A drug or vehicle is administered intravenously 10-30 minutes before the FRG challenge. A drug is considered active if there is no elevation of the LDH1 :LDH2 ratio, no ECG abnormalities and no histologic evidence of an infarction.
Male spontaneously hypertensive rats (280-320 g) from Taconic Farms, were lightly anesthetized with sodium pentobarbital (30-50 mg/kg, i.p.). […] A catheter of PE 50 tubing was inserted into the right common carotid artery to a position proximal to the ostia of the coronary arteries and used to sample blood and infuse the free radical generator (FRG) system. A second catheter of PE 10 tubing was inserted into the left jugular vein to administer drugs. The infusion system for the FRG consisted of a double syringe infusion pump, Sage Model 351, with one syringe containing xanthine oxidase (0.01 units/ml) in a HEPES (0.05M) buffer and the other syringe containing purine (2.3 mM) plus Fe^3+ loaded transferring (0.06 μM) in a HEPES (0.05M) buffer. The FRG infused separately mixes simultaneously near the ostia of the coronary arteries. This infusion was delivered at a rate of 0.03 ml/minute for a total infusion time of 10 minutes. The drugs were infused over a one minute period in a 0.9% saline vehicle.
Standard Lead II ECG was monitored continuously on a Hewlett-Packard 7758A recorder prior to treatment, throughout the FRG infusion and 10 minutes post infusion. Catheters were removed and animals were allowed to recover and fed standard rat chow and water ad libitum. 24 hours following the FRG infusion, animals were reanesthetized with sodium pentobarbital (30-50 mg/kg, i.p.) and an ECG was obtained. Blood samples were taken prior to and after the FRG infusion and at the conclusion of the experiment. These samples were centrifuged and assayed for total lactate dehydrogenase (LDH) and lactate dehydrogenase isoenzymes (LDH1 :LDH2), using electrophoresis.
The animals were sacrificed, the hearts rapidly excised, and washed free of blood and sectioned. The left ventricle was weighed and stored in a Revco® freezer at -70° C. The left ventricle was sliced into 2 mm-thick rings, incubated in a 1% triphenyltetrazolium chloride solution for 20 minutes, and then fixed in a 10% formalin solution. Infarcted areas were measured and quantitated as a percentage of the total left ventricular volume.

ear edema = assay: Mouse Ear Edema Test (In Vivo), arachidonic acid; parameters: species or system CD-1 male mice; conditions: topical, 1 h, at 1 mg topically
Description: Invest. Dermatol. 80:48 (1983) and Hames, Opas and Bonney, "Arachidonic Acid Metabolites in Mouse Ear Edema" Advances in Inflammation Research, 11:57 (1986). […] CD-1 male mice weighing 15 to 25 g were employed, and they were designated as follows: (1) Control Group, in which no arachidonic acid or test compound was to be applied, (2) Arachidonic Acid-Treated Group, in which no test compound was to be applied, and (3) Treated Group, in which the test compound was to be applied first, followed by the application of arachidonic acid. In the case of the Group (3) animals, the test compound, dissolved in acetone, was applied to the dorsal surface of the right ear of the mouse with a 25-microliter pipettor, with the dose of the test compound being varied. After 0.5 hours in some cases and 4 hours in others, the arachidonic acid was topically applied in the same manner as above to the pretreated ear areas. In each case of arachidonic acid application, an amount of 0.5 mg dissolved in 25 microliters of acetone was used. After 1 hour, the mice were sacrificed by carbon dioxide inhalation. A 6 mm-diameter standard biopsy punch was used to obtain a uniform tissue sample from the ear of each mouse so treated, and the tissue samples were weighed to the nearest 0.1 mg. The percent inhibition of ear edema formation was calculated as follows: [formula]

SMILES | Rat Acetic Acid Colitis Model % Inhib. of Myeloperoxidase Accumulation ([1]; 10 mg/kg p.o) [%] | Rat Acetic Acid Colitis Model % Inhib. of Myeloperoxidase Accumulation ([1]; 30 mg/kg p.o) [%] | inhibition in vivo at 100 mg/kg (Carrageenan pleurisy) [%] | Rat Ischemia Model Infarcts/Total ([2]; 10 mg/kg iv) | Rat Ischemia Model % Infarction ([2]; 10 mg/kg iv) [%] | inhibition in vivo at 1 mg (ear edema) [%] | Rat Acetic Acid Colitis Model % Inhib. of Myeloperoxidase Accumulation ([1]; 1 mg/kg p.o) [%] | Rat Acetic Acid Colitis Model % Inhib. of Myeloperoxidase Accumulation ([1]; 3 mg/kg p.o) [%] | Rat Ischemia Model Infarcts/Total ([2]; 5 mg/kg iv) | Rat Ischemia Model % Infarction ([2]; 5 mg/kg iv) [%] | inhibition in vivo at 50 mg/kg (Carrageenan pleurisy; at 50 mg/kg p.o) [%]
CCCc1c(OCCCCc2cccc(O)c2O)ccc(C(C)=O)c1O [1-[2-Hydroxy-4-[4-(2,3-dihydroxyphenyl)butoxy]-3-propylphenyl]ethanone] | 46 ± 7 | 89 ± 11 | 53 | 1/5 | 12 | – | – | – | – | – | –
CCCc1c(OCCCCCCc2ccc(C(C)C)c(O)c2O)ccc(C(C)=O)c1O [1-[2-hydroxy-4 [6-[2,3 dihydroxy-4-(1-methylethyl)phenyl]hexyloxy]-3 propylphenyl]ethanone] | 65 ± 10 | – | – | 2/5 | 11 | – | – | – | – | – | –
CCCc1c(OCCCCCCc2cccc(O)c2O)ccc(C(C)=O)c1O [1-[2-hydroxy-4-[6-(2,3-dihydroxyphenyl)hexyloxy]-3-propylphenyl]ethanone] | – | – | 51 | 4/4 | 24 | 21 | – | – | – | – | –
CCCc1c(OCCCc2ccc(O)c(O)c2)ccc(C(=O)O)c1O [4-[3-(3,4-Dihydroxyphenyl)propoxy]-2-hydroxy-3-propylbenzoic acid] | – | 39 ± 5 | 55 | – | – | 32 | – | – | – | – | –
CCCc1c(OCCCCc2cccc(O)c2O)ccc(C(=O)O)c1O [4-[4-(2,3-dihydroxyphenyl)butoxy]-2-hydroxy-3-propylbenzoic acid] | 73 ± 10 | 71 ± 11 | 76 | 2/5 | 8 | 17 | – | – | – | – | –
CCCc1c(OCCCCCc2cccc(O)c2O)ccc(C(=O)O)c1O [4-[5-(2,3-Dihydroxyphenyl)pentyloxy]-2-hydroxy-3-propylbenzoic acid] | – | – | 63 | 4/5 | 15 | 0 | 96 ± 13 | – | – | – | –
CCCc1c(OCCCCCCc2cccc(O)c2O)ccc(C(=O)OCC)c1O [4-[6-(2,3-Dihydroxyphenyl)hexyloxy]-2-hydroxy-3-propylbenzoic acid ethyl ester] | – | – | 44 | – | – | 64 | 40 ± 9 | 67 ± 11 | – | – | –
CCCc1c(OCCCCCCc2cccc(O)c2O)ccc(C(=O)O)c1O [4-[6-(2,3-Dihydroxyphenyl)hexyloxy]-2-hydroxy-3-propylbenzoic acid] | 42 ± 2 | 67 ± 15 | 68 | 4/5 | 8 | 46 | – | – | – | – | –
O=C(O)c1ccc(OCCCCCCc2cccc(O)c2O)cc1O [4-[6-(2,3-Dihydroxyphenyl)hexyloxy]-2-hydroxybenzoic acid] | – | – | 0 | 3/5 | 10 | 50 | 82 ± 9 | 81 ± 15 | – | – | –
O=C(O)c1ccc(OCCCCCCc2cccc(O)c2O)cc1 [4-[6-(2,3-Dihydroxyphenyl)hexyloxy]benzoic acid] | 89 ± 28 | – | 46 | 2/5 | 19 | 48 | – | 79 ± 8 | – | – | –
CCCc1c(OCCCCCCc2ccc(O)c(O)c2)ccc(C(=O)O)c1O [4-[6-(3,4-dihydroxyphenyl)hexyloxy]-2-hydroxy-3-propylbenzoic acid] | – | – | 0 | – | – | 21 | – | – | 1/5 | 11 | –
CCCc1c(OCCCCCCCc2cccc(O)c2O)ccc(C(=O)O)c1O [4-[7-(2,3-dihydroxyphenyl)heptyloxy]-2-hydroxy-3-propylbenzoic acid] | – | – | 57 | 3/5 | 18 | 57 | – | – | – | – | –
CCCc1c(OCCCCCCCCCCc2cccc(O)c2O)ccc(C(=O)O)c1O [4-[10-(2,3-dihydroxyphenyl)decyloxy]-2-hydroxy-3-propylbenzoic acid] | – | – | 61 | 3/3 | 13 | 49 | – | – | – | – | –
CCCc1c(O)c(C(=O)O)cc(Cl)c1OCCCCCCc1cccc(O)c1O [5-Chloro-2-hydroxy-4-[6-(2,3-dihydroxyphenyl]hexyloxy]-3-propylbenzoic acid] | – | 44 ± 6 | – | – | – | 51 | – | – | – | – | 45
